Values of other authors, collected in US20050114109A1, “STRUCTURE OF INTEGRIN ALPHA V-beta 3 EXTRACELLULAR DOMAIN COMPLEXED WITH LIGAND” (priority 2002, published 2005).

System: native or extracellular αVβ3
Settings: physiologic ligands, from Mehta et al. 1998 and Dechantsreiter et al. 1999, read-out: IC50, competes with binding of physiologic ligands to αVβ3

native or extracellular αVβ3, sequence (P06756 31-889 limits assumed): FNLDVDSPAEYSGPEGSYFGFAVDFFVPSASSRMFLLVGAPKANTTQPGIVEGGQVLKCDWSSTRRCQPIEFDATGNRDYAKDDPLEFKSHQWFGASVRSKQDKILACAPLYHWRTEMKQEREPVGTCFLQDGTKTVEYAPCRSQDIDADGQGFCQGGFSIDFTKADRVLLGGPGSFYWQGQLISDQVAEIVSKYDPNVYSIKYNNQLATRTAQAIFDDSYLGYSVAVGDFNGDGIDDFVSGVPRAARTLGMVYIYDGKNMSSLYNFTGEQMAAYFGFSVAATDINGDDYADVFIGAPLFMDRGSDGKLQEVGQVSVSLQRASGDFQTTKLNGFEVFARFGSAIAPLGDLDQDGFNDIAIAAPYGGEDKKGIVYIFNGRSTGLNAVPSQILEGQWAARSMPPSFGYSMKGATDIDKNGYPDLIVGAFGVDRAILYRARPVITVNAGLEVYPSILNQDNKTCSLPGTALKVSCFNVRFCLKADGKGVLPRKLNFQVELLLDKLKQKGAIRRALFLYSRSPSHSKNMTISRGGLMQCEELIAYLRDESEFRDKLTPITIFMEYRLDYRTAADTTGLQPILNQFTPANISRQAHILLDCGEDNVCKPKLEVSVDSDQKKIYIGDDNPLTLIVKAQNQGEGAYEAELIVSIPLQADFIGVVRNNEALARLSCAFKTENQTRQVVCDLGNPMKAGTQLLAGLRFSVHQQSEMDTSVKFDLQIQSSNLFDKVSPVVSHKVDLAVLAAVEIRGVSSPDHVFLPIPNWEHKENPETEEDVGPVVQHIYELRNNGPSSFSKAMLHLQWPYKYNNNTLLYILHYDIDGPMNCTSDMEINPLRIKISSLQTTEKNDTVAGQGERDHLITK
native or extracellular αVβ3, sequence (P06756 891-987 limits assumed): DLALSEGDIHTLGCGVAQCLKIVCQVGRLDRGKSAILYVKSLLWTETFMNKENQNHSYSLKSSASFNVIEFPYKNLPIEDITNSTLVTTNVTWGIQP
native or extracellular αVβ3, sequence (P05106 27-625 limits assumed, further chain): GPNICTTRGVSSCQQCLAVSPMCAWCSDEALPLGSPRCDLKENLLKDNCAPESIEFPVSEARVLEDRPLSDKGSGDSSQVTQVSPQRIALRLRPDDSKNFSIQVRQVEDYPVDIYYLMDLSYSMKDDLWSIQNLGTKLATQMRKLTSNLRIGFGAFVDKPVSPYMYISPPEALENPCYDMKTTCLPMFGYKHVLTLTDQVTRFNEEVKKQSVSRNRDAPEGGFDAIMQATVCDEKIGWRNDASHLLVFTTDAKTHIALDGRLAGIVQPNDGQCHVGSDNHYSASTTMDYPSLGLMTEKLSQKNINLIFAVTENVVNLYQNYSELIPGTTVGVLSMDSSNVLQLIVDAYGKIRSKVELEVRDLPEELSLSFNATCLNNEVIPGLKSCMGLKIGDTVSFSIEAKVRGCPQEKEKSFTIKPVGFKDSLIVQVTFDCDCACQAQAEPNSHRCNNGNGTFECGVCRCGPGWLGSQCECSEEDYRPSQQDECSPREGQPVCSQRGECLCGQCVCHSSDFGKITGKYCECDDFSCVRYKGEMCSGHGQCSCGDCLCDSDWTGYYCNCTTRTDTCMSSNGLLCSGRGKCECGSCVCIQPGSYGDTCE

For “Arg-Gly-Asp-(D-Phe)-(N-methyl-Val) [Cyclo(RGDf-N-Me-V), cyclic pentapeptide ligand of αVβ3, in clinical trials as an anti-angiogenic therapeutic]”, which IC50 is on record?
Its IC50 is 0.5 to 3 nM.
